Measurements taken from patent US12325709B2, “Cannabinoid derivatives” (CANOPY GROWTH CORPORATION, priority 2019, dated 2025).

Assays:
[1] = target: T1, human CB1 receptor (Homo sapiens, UniProt P21554); test: CB1 radioligand competitive binding assay ([3H]CP 55,940 displacement)
T1 construct: host or cells: CHO-K1 (Chinese hamster ovary) cells, stably transfected; membranes prepared in house

[2] = target: T2, human CB2 receptor (Homo sapiens, UniProt P34972); test: CB2 radioligand competitive binding assay ([3H]CP 55,940 displacement); settings: for Selectivity CB2: fold difference in binding between CB1 and CB2, shown in column of receptor with higher affinity, 1.00 in both = about the same affinity
T2 construct: host or cells: CHO-K1 (Chinese hamster ovary) cells, stably transfected; membranes prepared in house
T2 sequence (P34972 whole entry): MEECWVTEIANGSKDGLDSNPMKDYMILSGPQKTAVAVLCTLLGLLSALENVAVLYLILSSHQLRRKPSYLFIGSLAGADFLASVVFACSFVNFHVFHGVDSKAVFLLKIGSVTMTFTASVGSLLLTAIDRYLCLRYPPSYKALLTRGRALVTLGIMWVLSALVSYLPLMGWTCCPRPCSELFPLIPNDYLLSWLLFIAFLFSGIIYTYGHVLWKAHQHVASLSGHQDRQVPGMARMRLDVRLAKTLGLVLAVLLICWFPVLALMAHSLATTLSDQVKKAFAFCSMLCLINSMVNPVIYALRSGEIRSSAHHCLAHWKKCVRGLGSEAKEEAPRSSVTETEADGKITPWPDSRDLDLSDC
Procedure: Compounds of the present disclosure were tested for CB1 receptor binding affinity and for CB2 receptor binding affinity. As used herein, “binding affinity” is represented by the IC50 value, which was experimentally determined as described herein. The lower the IC50 value the higher the binding affinity.
The membranes were prepared from CHO-K1 (Chinese hamster ovary) cells stably transfected with the human CB2 receptor (Cat. #ES-111-C; Perkin Elmer, Boston, MA). The cells were grown adherently and maintained in Ham's F12 medium containing 10% fetal bovine serum (FBS), penicillin, streptomycin and geneticin (G418) at 37° C. in a humid atmosphere of 5% CO2 following the manufacturer's instructions.
For membrane preparation the cells were washed with PBS and scraped off the plates in cold homogenization buffer (25 mM HEPES (pH 7.4), 2 mM EDTA) containing protease inhibitor cocktail (Sigma Cat. #P8340). The cell suspension was homogenized with a Pro-PK-01200D Polytron Homogenizer (Pro Scientific) and then centrifuged for 30 min at 120,000×g. The supernatant was discarded and the pellet was re-suspended in the homogenization buffer and stored at −80° C. until the time of use.
In this experiment, 3H radiolabeled CP 55,940, i.e. [3H]CP 55,940 (Perkin Elmer, Boston, MA), was used as a radioligand for the CB2 receptor to determine the binding affinity of compounds for the CB2 receptor (Scheme 3; above).
The competition binding experiments (single dose and dose-response) were performed by incubating 0.6 nM of [3H]CP55,940 (specific activity 101 Ci/mmol, Perkin Elmer) and different concentrations of compounds disclosed herein with membranes prepared as above from CHO-K1 cells expressing human CB2 receptor (1 μg of protein/well), 50 mM Tris-HCl (pH 7.4), 5 mM MgCl2, 1 mM CaCl2, and 2 mg/mL BSA.
For the dose-response experiments the test compounds were sequentially diluted to provide the desired concentration range for the IC50 determination. In each case the compounds were pre-incubated with the membrane for 20 min, before adding the radioligand.
After incubation with the radioligand for 60 min at 37° C., the incubation was terminated by rapid filtration of assay mixture through MultiScreen®HTS^+ 96-well filter plates (Millipore, Cat. #MSFCNXB), pre-soaked for 60 min with 50 mM Tris-HCl (pH 7.4) containing 0.33% polyethylenimine (PEI). The nonspecific binding (NSB) was determined in the presence of 10 μM unlabelled CP55,940. After drying the filter plate at 50° C. for at least 60 min, the filter-bound radioactivity was determined by scintillation spectrometry using the 1450 MicroBeta Plate Counter (Perkin Elmer, Boston, MA).

T1 sequence (P21554 whole entry): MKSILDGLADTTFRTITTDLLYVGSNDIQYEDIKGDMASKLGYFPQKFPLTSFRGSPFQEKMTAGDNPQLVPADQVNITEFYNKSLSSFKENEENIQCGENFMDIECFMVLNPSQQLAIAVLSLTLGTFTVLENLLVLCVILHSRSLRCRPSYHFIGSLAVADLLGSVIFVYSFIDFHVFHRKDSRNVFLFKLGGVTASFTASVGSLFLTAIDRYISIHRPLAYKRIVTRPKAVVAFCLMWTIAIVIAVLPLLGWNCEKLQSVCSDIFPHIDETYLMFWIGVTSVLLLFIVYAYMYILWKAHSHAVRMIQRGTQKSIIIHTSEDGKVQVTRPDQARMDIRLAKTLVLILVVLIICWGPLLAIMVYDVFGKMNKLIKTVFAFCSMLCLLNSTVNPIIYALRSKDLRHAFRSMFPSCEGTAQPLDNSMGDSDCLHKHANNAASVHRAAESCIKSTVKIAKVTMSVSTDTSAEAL

Row | SMILES | IC50 [1] [nM] | IC50 [2] [nM] | Selectivity CB2 [2] [fold]
1 | CCCCCc1cc(O)c(C2C=C(C)CCC2)c(O)c1C(=O)N1CCN(S(C)(=O)=O)CC1 (stereo not drawn) [Compound 37c, (2,6-dihydroxy-5′-methyl-4-pentyl-1′,2′,3′,4′-tetrahydro-[1,1′-biphenyl]-3-yl)(4-(methylsulfonyl)piperazin-1-yl)methanone] | > 5000 | 100 to 990 | 66.67
2 | CCCCCc1cc(O)c(C2C=C(C)CCC2)c(O)c1C(=O)NCc1ccccc1Br (stereo not drawn) [Compound 57c, N-(2-bromobenzyl)-2,6-dihydroxy-5′-methyl-4-pentyl-1′,2′,3′,4′-tetrahydro-[1,1′-biphenyl]-3-carboxamide] | 1000 to 4990 | < 100 | 21.67
